{
  "source": "patent US20120115128A1",
  "about": "“SELECTIVE PROTEIN LABELING” (THE BOARD OF TRUSTEES OF THE UNIVERSITY OF ILLINOIS, priority 2009, published 2012)",
  "key": {"E. coli (strain DH5α)": {"test_system": "E. coli (strain DH5α)", "assay": "E. coli growth inhibition assay (MIC on agar plates)", "assay_type": "cell-based", "conditions": "for MIC: Escherichia coli, read-out: minimum inhibitory concentration (MIC)", "text": "E. coli growth inihibition assay. […] The minimal inhibitory concentration (MIC) was reported as the lowest concentration at which no colonies formed."}, "[1]": {"test_system": "nucleus-targeted pfDHFR (K27E, C59R, S108N) soluble domain in NIH 3T3 fibroblast cells", "conditions": "500 nM, ca. 15 minutes"}, "human cells": {"test_system": "human cells", "conditions": "cited from earlier work"}, "human leukocytes": {"test_system": "human leukocytes", "conditions": "cited from earlier work"}, "eDHFR": {"target": "T1, eDHFR (Escherichia coli, UniProt P0ABQ4)", "T1 construct": "pRSETb-EGFP-eDHFR expressed the protein fusion […]-[EGFP]-GSGGSG-[eDHFR]; His6 leader of pRSETb ([…]) (N); made in house; host or cells: E. coli BL21 DE3 (pLysS)", "assay": "biochemical", "design": "species or system E. coli", "conditions": "terbium-complexed probe 20 nM, purified eDHFR-GFP, non-linear least-squares fit; read-out: dissociation constant for binding to eDHFR"}, "[2]": {"target": "eDHFR expressed on the cell surface of NIH3T3 fibroblasts (Escherichia coli, UniProt P0ABQ4)", "assay": "Labeling of cell surface-expressed eDHFR (pDisplay-eDHFR) on NIH3T3 fibroblasts, microscopy", "assay_type": "cell-based", "conditions": "1 μM, 10 min, time-resolved imaging"}, "[3]": {"target": "GFP-cldn1/tailΔYV (GFP-cldn1/tail construct lacking the C-terminal YV motif) (human) (UniProt O95832)", "assay": "intermolecular TR-FRET microscopy in living MDCK cells; sensitized GFP emission at 520 nm"}, "[4]": {"target": "T2, GFP-cldn1/tail (N-terminal fusion of EGFP to the C-terminal cytoplasmic domain, residues 187-211, of human … (human, UniProt O95832 187-211, not fully specified))", "T2 construct": "Expressed in living MDCK cells; GFP is the FRET acceptor; also called C-terminal cytoplasmic tail of claudin-1; not shown: enhanced GFP (EGFP) as encoded in vector pEGFP-C1 (Clontech)", "T2 chain (looked up)": "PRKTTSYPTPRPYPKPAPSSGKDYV", "assay": "intermolecular TR-FRET microscopy in living MDCK cells; sensitized GFP emission at 520 nm"}, "[5]": {"target": "T2, GFP-cldn1/tail (N-terminal fusion of …)", "assay": "intermolecular TR-FRET microscopy in living MDCK cells; reference pair ZO-1/PDZ1-eDHFR and GFP-cldn1/tailΔYV"}},
  "note": "Like-named read-outs stand apart in the source and are kept apart here.",
  "data": [
    {"molecule": "CCOc1cc(Cc2cnc(N)nc2N)ccc1OCc1cc(OC)c(OCCCCC(=O)NCCOCCOCCNC(=O)OC(C)(C)C)c(OC)c1", "note": "[Compound 2a]", "values": [
      {"measurement": "MIC", "setting": "E. coli (strain DH5α); 37° C., 24 hours, lowest concentration at which no colonies formed", "value": "~20", "unit": "µM"},
      {"measurement": "cell permeability (diffuse fluorescence)", "setting": "[1]", "value": "passively diffused into mammalian cells"}
    ]},
    {"molecule": "COc1cc(Cc2cnc(N)nc2N)cc(C#CCCCC(=O)O)c1OCCCCC(=O)NCCOCCOCCN", "note": "[Compound 3a]", "values": [
      {"measurement": "ability to cross the E. coli cell membrane (inferred from growth assay)", "setting": "E. coli (strain DH5α)", "value": "cannot cross the cell membrane"},
      {"measurement": "MIC", "setting": "E. coli (strain DH5α); 24 h", "value": "> 100", "unit": "µM"}
    ]},
    {"molecule": "CN(Cc1cnc2nc(N)nc(N)c2n1)c1ccc(C(=O)N[C@@H](CCC(=O)O)C(=O)O)cc1", "note": "[MTX, Methotrexate]", "values": [
      {"measurement": "extracellular concentration at which DNA damage has been observed", "setting": "human cells", "value": 10, "unit": "µM"},
      {"measurement": "concentration at which toxicity observed", "setting": "human leukocytes", "value": 2000, "unit": "nM"}
    ]},
    {"molecule": "COc1cc(Cc2cnc(N)nc2N)cc(OC)c1OCCCCC(=O)NCCOCCOCCNC(=O)CN(CCN(CCN(CC(=O)O)CC(=O)Nc1ccc2c(C)cc(=O)[nH]c2c1)CC(=O)O)CC(=O)O", "note": "[TMP-cDTPA]", "values": [
      {"measurement": "Kd", "setting": "eDHFR", "value": "9 ± 1.3", "unit": "nM"},
      {"measurement": "cell-surface labelling of eDHFR, time-resolved mode", "setting": "[2]", "value": "not"}
    ]},
    {"molecule": "ZO-1/PDZ1-eDHFR (C-terminal fusion of eDHFR to the PDZ1 domain, residues 19-113, of human ZO-1) (other, human;Escherichia coli, Built by inserting ZO-1 19-113 into pLL-1NLS in frame with eDHFR; also called PDZ1 domain of ZO-1) MWEQHTVTLHRAPGFGFGIAISGGRDNPHFQSGETSIVISDVLKGGPAEGQLQENDRVAMVNGVSMDNVEHAFAVQQLRKSGKNAKITIRRKKKVQMISLIAALAVDRVIGMENAMPWNLPADLAWFKRNTLNKPVIMGRHTWESIGRPLPGRKNIILSSQPGTDDRVTWVKSVDEAIAACGDVPEIMVIGGGRVYEQFLPKAQKLYLTHIDAEVEGDTHFPDYEPDDWESVFSEFHDADAQNSHSYCFEILERR", "values": [
      {"measurement": "signal-to-noise ratio for intermolecular TR-FRET", "setting": "[3]", "value": 1.5},
      {"measurement": "signal-to-noise ratio for intermolecular TR-FRET", "setting": "[4]", "value": 6.3},
      {"measurement": "fold difference in TR-FRET signal against GFP-cldn1/tailΔYV", "setting": "[5]", "value": "> 4", "unit": "fold"}
    ]}
  ]
}
